In ChEMBL document CHEMBL1909046, “DrugMatrix in vitro pharmacology data”:

Experiments:
[1] = molecular target: C-C chemokine receptor type 5 (Homo sapiens, UniProt P51681); format: cell membranes, HEK293, Membrane; settings: hek293; further: in other assays of this panel Not Active means under 50% inhibition at 10 µM
[2] = molecular target: T1, Cysteinyl leukotriene receptor 1 (Homo sapiens, UniProt Q9Y271); format: cell membranes, CHO-K1, Membrane; settings: cho-k1; further: in other assays of this panel Not Active means under 50% inhibition at 10 µM
T1 sequence (Q9Y271 whole entry): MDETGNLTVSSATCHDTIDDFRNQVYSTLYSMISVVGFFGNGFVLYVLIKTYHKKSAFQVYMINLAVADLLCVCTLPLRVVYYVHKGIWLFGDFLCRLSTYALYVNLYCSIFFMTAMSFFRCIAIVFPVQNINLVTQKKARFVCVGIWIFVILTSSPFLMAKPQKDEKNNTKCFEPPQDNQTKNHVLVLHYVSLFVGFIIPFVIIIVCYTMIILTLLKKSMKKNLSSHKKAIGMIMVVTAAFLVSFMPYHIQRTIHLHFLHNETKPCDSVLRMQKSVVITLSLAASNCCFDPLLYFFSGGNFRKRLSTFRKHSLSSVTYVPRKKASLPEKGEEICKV

[3] = molecular target: Adenosine receptor A2a (Homo sapiens, UniProt P29274); experiment: DRUGMATRIX: Adenosine A2A radioligand binding (ligand: […]); format: cell membranes, HEK293, Membrane; settings: hek293; Not Active = under 50% inhibition at 10 µM
[4] = molecular target: T2, Adenosine receptor A1 (Homo sapiens, UniProt P30542); format: cell membranes, CHO, Membrane; settings: cho;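 further: radioligand binding assay at the adenosine A1 receptor, with DPCPX serving as the labelled ligand; in other assays of this panel Not Active means under 50% inhibition at 10 µM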
T2 sequence (P30542 whole entry): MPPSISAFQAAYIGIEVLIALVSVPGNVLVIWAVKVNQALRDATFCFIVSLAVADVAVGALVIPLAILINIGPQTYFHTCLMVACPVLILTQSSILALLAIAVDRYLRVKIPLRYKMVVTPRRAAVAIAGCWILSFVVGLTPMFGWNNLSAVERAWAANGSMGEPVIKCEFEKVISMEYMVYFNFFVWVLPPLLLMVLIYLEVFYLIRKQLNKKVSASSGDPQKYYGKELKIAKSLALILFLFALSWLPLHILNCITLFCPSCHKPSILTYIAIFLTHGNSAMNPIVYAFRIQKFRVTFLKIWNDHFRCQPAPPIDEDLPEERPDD

[5] = molecular target: Beta-1 adrenergic receptor (Homo sapiens, UniProt P08588); experiment: DRUGMATRIX: Adrenergic beta1 radioligand binding (ligand: [125I] Cyanopindolol); format: cell membranes, CHO-K1, Membrane; settings: cho-k1; Not Active = under 50% inhibition at 10 µM
[6] = molecular target: Mitogen-activated protein kinase 1 (Homo sapiens, UniProt P28482); experiment: DRUGMATRIX: Protein Serine/Threonine Kinase, ERK2 enzyme inhibition (substrate: Myelin Basic Protein); design: species or system Escherichia coli; settings: Not Active = under 50% inhibition at 10 µM
[7] = molecular target: Substance-P receptor (Homo sapiens, UniProt P25103); format: cell membranes, Membrane; settings: cho; further: in other assays of this panel Not Active means under 50% inhibition at 10 µM
Substance-P receptor, sequence (P25103 whole entry): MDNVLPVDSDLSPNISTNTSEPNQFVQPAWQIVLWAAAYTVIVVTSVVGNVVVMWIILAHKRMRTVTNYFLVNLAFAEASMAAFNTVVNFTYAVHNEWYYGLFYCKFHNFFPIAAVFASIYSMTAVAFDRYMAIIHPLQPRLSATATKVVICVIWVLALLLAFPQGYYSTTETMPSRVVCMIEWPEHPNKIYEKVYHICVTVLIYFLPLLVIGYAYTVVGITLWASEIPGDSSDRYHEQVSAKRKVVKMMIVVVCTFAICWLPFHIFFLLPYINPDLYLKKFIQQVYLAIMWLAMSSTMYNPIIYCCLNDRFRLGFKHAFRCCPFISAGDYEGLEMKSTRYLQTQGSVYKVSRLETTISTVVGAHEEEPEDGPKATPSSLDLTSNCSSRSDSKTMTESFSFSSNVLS

Adenosine receptor A2a, sequence (P29274 whole entry): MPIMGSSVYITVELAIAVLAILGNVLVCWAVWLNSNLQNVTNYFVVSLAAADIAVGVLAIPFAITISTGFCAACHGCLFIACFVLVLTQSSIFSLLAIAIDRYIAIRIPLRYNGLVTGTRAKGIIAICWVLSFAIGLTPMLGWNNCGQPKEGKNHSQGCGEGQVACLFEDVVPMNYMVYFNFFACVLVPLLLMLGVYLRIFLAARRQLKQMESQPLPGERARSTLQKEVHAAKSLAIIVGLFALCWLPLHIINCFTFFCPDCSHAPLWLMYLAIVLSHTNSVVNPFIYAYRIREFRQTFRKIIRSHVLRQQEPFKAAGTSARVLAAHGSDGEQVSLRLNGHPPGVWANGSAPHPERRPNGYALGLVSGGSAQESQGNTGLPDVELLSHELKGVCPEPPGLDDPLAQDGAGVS
Beta-1 adrenergic receptor, sequence (P08588 whole entry): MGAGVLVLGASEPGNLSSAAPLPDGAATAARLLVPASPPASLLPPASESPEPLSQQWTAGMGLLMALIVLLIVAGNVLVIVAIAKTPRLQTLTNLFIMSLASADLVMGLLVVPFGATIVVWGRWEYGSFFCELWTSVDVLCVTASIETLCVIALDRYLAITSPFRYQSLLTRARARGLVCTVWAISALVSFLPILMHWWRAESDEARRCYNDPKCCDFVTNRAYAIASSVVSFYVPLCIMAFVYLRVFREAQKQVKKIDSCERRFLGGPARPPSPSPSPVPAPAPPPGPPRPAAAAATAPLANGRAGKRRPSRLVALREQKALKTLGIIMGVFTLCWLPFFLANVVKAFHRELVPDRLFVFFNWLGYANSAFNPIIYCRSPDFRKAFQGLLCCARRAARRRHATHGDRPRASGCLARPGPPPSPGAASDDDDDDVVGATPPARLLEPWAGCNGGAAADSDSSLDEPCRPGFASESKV
Mitogen-activated protein kinase 1, sequence (P28482 whole entry): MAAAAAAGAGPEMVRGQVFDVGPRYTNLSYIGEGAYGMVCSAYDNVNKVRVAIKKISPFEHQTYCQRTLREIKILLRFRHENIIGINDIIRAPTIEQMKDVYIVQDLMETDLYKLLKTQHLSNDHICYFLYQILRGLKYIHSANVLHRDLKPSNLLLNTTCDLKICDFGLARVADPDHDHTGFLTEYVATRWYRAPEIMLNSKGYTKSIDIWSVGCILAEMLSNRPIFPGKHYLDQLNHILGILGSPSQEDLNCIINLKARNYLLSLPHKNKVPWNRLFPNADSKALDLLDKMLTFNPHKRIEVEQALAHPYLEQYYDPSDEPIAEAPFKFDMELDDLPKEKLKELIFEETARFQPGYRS
C-C chemokine receptor type 5, sequence (P51681 whole entry): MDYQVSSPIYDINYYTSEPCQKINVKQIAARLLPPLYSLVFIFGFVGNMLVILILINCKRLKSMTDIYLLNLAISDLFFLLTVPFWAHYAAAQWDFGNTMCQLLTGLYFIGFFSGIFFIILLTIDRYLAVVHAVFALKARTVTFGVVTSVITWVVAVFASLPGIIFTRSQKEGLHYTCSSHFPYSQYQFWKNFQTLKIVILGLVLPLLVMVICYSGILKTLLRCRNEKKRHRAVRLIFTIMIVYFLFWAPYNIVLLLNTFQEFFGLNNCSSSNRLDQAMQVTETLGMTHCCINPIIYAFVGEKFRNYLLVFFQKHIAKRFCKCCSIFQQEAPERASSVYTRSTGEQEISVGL

Row | Compound | IC50 [1] | IC50 [2] | IC50 [3] | IC50 [4] | IC50 [5] | IC50 ([6]; read-out: IC50) | IC50 [7] | Ki [1] | Ki [2] | Ki [3] | Ki [4] | Ki [5] | IC50 [6] | Ki [6] | Ki [7]
1 | O=C(OC[C@H]1O[C@@H](OC(=O)c2cc(O)c(O)c(OC(=O)c3cc(O)c(O)c(O)c3)c2)[C@H](OC(=O)c2cc(O)c(O)c(OC(=O)c3cc(O)c(O)c(O)c3)c2)[C@@H](OC(=O)c2cc(O)c(O)c(OC(=O)c3cc(O)c(O)c(O)c3)c2)[C@@H]1OC(=O)c1cc(O)c(O)c(OC(=O)c2cc(O)c(O)c(O)c2)c1)c1cc(O)c(O)c(OC(=O)c2cc(O)c(O)c(O)c2)c1 [TANNIC ACID] | Not Active | Not Active | Not Active | Not Active | Not Active | 185 nM | Not Active |  |  |  |  |  |  |  | 
2 | LEAD(IV) ACETATE | Not Active | Not Active | Not Active | Not Active | Not Active |  | Not Active | Not Active | Not Active | Not Active | Not Active | Not Active | Not Active | Not Active | Not Active
3 | CO[C@@H]1[C@@H](OC)[C@H](C)[C@@](O)(CC(=O)O)O[C@H]1[C@H](C)[C@H]1O[C@@]2(CC[C@@](C)([C@H]3CC[C@@](C)([C@@H]4O[C@@H]([C@H]5O[C@](C)(O)[C@H](C)C[C@@H]5C)C[C@@H]4O[C@@H]4C[C@H](OC)[C@@H](OC)[C@H](C)O4)O3)O2)C[C@H](O)[C@H]1C.N [MADURAMICIN] | Not Active | Not Active | Not Active | Not Active | Not Active |  | Not Active |  |  |  |  |  | Not Active |  | 
4 | C[N+]1(C)[C@@H]2C[C@@H](OC(=O)[C@H](CO)c3ccccc3)C[C@H]1[C@@H]1O[C@@H]12.[Br-] [METHSCOPOLAMINE BROMIDE] | Not Active | Not Active | Not Active | Not Active | Not Active |  | Not Active |  |  |  |  |  | Not Active |  | 
5 | Cc1nnc(NS(=O)(=O)c2ccc(N)cc2)s1 [SULFAMETHIZOLE] | Not Active | Not Active | Not Active | Not Active | Not Active |  | Not Active |  |  |  |  |  | Not Active |  | 
6 | Cc1ccc(S(=O)(=O)NC(=O)NN2CCCCCC2)cc1 [TOLAZAMIDE] | Not Active | Not Active | Not Active | Not Active | Not Active |  | Not Active |  |  |  |  |  | Not Active |  | 
7 | CCC(C)(C)C(=O)O[C@H]1C[C@@H](C)C=C2C=C[C@H](C)[C@H](CC[C@@H]3C[C@@H](O)CC(=O)O3)[C@H]21 [SIMVASTATIN] | Not Active | Not Active | Not Active | Not Active | Not Active |  | Not Active |  |  |  |  |  | Not Active |  | 
8 | Cc1ccnc(NS(=O)(=O)c2ccc(N)cc2)n1 [SULFAMERAZINE] | Not Active | Not Active | Not Active | Not Active | Not Active |  | Not Active |  |  |  |  |  | Not Active |  | 
9 | OC[C@@H](O)[C@@H](O)[C@H](O)[C@H](O)CO [MANNITOL] | Not Active | Not Active | Not Active | Not Active | Not Active |  | Not Active |  |  |  |  |  | Not Active |  | 
10 | CCN(CC)N=O [N-NITROSODIETHYLAMINE] | Not Active | Not Active | Not Active | Not Active | Not Active |  | Not Active |  |  |  |  |  | Not Active |  | 
11 | CC(=O)O[C@]1(C(C)=O)CC[C@H]2[C@@H]3C[C@H](C)C4=CC(=O)CC[C@]4(C)[C@H]3CC[C@@]21C [MEDROXYPROGESTERONE ACETATE] | Not Active | Not Active | Not Active | Not Active | Not Active |  | Not Active |  |  |  |  |  | Not Active |  | 
12 | CCN1CCCC1CNC(=O)c1cc(S(N)(=O)=O)ccc1OC (stereo unspecified) [SULPIRIDE] | Not Active | Not Active | Not Active | Not Active | Not Active |  | Not Active |  |  |  |  |  | Not Active |  | 
13 | CN1C[C@H](CNC(=O)OCc2ccccc2)C[C@@H]2c3cccc4c3c(cn4C)C[C@H]21 [METERGOLINE] | Not Active | Not Active | Not Active | Not Active | Not Active |  | Not Active |  |  |  |  |  | Not Active |  | 
14 | CC(Cl)(Cl)Cl [TRICHLOROETHANE] | Not Active | Not Active | Not Active | Not Active | Not Active |  | Not Active |  |  |  |  |  | Not Active |  | 
15 | CC1=C(/C=C/C(C)=C/C=C/C(C)=C/C(=O)O)C(C)(C)CCC1 [TRETINOIN] | Not Active | Not Active | Not Active | Not Active | Not Active | 576 nM | Not Active |  |  |  |  |  |  |  | 
16 | C=CCc1ccc2c(c1)OCO2 [SAFROLE] | Not Active | Not Active | Not Active | Not Active | Not Active |  | Not Active |  |  |  |  |  | Not Active |  | 
17 | C1CCN2C[C@@H]3C[C@@H](CN4CCCC[C@@H]34)[C@H]2C1 [SPARTEINE] | Not Active | Not Active | Not Active | Not Active | Not Active |  | Not Active |  |  |  |  |  | Not Active |  | 
